# Experimental data published in patent publication US10745382B2 (BRISTOL-MYERS SQUIBB COMPANY, priority 2015, dated 2020).
# Biological target: T1, PD-1/PD-L1 (Homo sapiens, UniProt Q9NZQ7)
# T1 construct: made in house; host or cells: HEK293T
# Assay: PD-1/PD-L1 Homogenous Time-Resolved Fluorescence (HTRF) binding assay
# Details: PD-L1-His 10 nM, PD-1-Ig 20 nM; value given as range class; read-out: Range or IC50
# Procedure, shortened: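 Binding measured in dPBS with 0.1% BSA and 0.05% Tween-20, detected by HTRF with europium cryptate anti-Ig (1 nM final) and APC anti-His (20 nM final) added over the binding reaction. Counter-assays used human PD-1-Ig/PD-L2-His (20 and 5 nM) and CD80-His/PD-L1-Ig (100 and 10 nM).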
# T1 sequence (Q9NZQ7 with tags, fused parts or gaps): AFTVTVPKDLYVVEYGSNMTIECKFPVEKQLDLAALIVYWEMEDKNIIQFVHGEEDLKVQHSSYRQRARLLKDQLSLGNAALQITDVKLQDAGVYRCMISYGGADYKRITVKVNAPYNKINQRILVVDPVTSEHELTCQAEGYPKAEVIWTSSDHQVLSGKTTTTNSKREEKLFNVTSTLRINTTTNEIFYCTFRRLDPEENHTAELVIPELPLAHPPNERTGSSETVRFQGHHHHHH
row,IC50 [nM],SMILES
1,0.21 to 10,"Cc1c(COc2cc(OCc3cncc(C#N)c3)c(CN3CCCC[C@H]3C(=O)O)cc2Cl)cccc1-c1cccc(OCCCNC[C@H](O)c2ccccc2)c1C [Example 2220, (2S)-1-(5-chloro-2-((5-cyanopyridin-3-yl)methoxy)-4-((3′-(3-((R)-2-hydroxy-2-phenylethylamino)propoxy)-2,2′-dimethylbiphenyl-3-yl)methoxy)benzyl)piperidine-2-carboxylic Acid]"
2,0.21 to 10,"Cc1c(COc2cc(OCc3cncc(S(C)(=O)=O)c3)c(CN3CCCC[C@H]3C(=O)O)cc2Cl)cccc1-c1ccc2c(c1)OC(CCN1CC[C@@H](O)C1)CO2 (mixture of isomers) [Example 1507, (2S)-1-(5-chloro-4-((3-(3-(2-((R)-3-hydroxypyrrolidin-1-yl)ethyl)-2,3-dihydrobenzo[b][1,4]dioxin-6-yl)-2-methylbenzyl)oxy)-2-((5-(methylsulfonyl)pyridin-3-yl)methoxy)benzyl)piperidine-2-carboxylic acid]"
3,0.21 to 10,"Cc1c(COc2cc(OCc3cncc(C#N)c3)c(CN3CCCC[C@H]3C(=O)O)cc2Cl)cccc1-c1cccc(OCCCN2CCC[C@H](O)C2)c1 [Example 1019, (S)-1-(5-chloro-2-((5-cyanopyridin-3-yl)methoxy)-4-((3′-(3-((S)-3-hydroxypiperidin-1-yl)propoxy)-2-methyl-[1,1′-biphenyl]-3-yl)methoxy)benzyl)piperidine-2-carboxylic Acid]"
4,0.21 to 10,"Cc1c(OCCCN2CC[C@@H](O)C2)cccc1-c1cccc(COc2cc(OCc3cncc(C#N)c3)c(CN3CCCC[C@H]3C(=O)O)cc2Cl)c1Cl [Example 2302, (S)-1-(5-chloro-4-((2-chloro-3′-(3-((R)-3-hydroxypyrrolidin-1-yl)propoxy)-2′-methyl-[1,1′-biphenyl]-3-yl)methoxy)-2-((5-cyanopyridin-3-yl)methoxy)benzyl)piperidine-2-carboxylic Acid]"
5,0.21 to 10,"Cc1c(OCCCN2CC[C@H](CO)[C@H](O)C2)cccc1-c1cccc(COc2cc(OCc3cncc(C#N)c3)c(CNC(CO)CO)cc2Cl)c1Cl [Example 2298, 5-((4-chloro-5-((2-chloro-3′-(3-((3S,4R)-3-hydroxy-4-(hydroxymethyl)piperidin-1-yl)propoxy)-2′-methyl-[1,1′-biphenyl]-3-yl)methoxy)-2-(((1,3-dihydroxypropan-2-yl)amino)methyl)phenoxy)methyl)nicotinonitrile]"

# The next lines start with the molecule.
row,SMILES,IC50 [nM]
1,"CCC(CO)(CO)NCc1cc(Cl)c(OCc2cccc(-c3cccc(OCCCNC[C@H](O)CO)c3C)c2C)cc1OCc1cncc(C#N)c1 [Example 2279, (S)-5-((4-chloro-5-((3′-(3-((2,3-dihydroxypropyl)amino)propoxy)-2,2′-dimethyl-[1,1′-biphenyl]-3-yl)methoxy)-2-(((1-hydroxy-2-(hydroxymethyl)butan-2-yl)amino)methyl)phenoxy)methyl)nicotinonitrile]",0.21 to 10
2,"Cc1c(COCCN2CC[C@@H](O)C2)cccc1-c1cccc(COc2cc(OCc3cncc(C#N)c3)c(CN[C@@](C)(CO)C(=O)O)cc2Cl)c1C [Example 4123, (S)-2-((5-chloro-2-((5-cyanopyridin-3-yl)methoxy)-4-((3′-((2-((R)-3-hydroxypyrrolidin-1-yl)ethoxy)methyl)-2,2′-dimethyl-[1,1′-biphenyl]-3-yl)methoxy)benzyl)amino)-3-hydroxy-2-methylpropanoic Acid]",0.21 to 10
3,"CNC(=O)c1cccc(-c2cccc(COc3cc(OCc4cncc(C#N)c4)c(CN4C[C@@H](O)C[C@H]4C(=O)O)cc3Cl)c2C)c1C [Example 4014, (2S,4S)-1-(5-chloro-2-((5-cyanopyridin-3-yl)methoxy)-4-((2,2′-dimethyl-3′-(methylcarbamoyl)-[1,1′-biphenyl]-3-yl)methoxy)benzyl)-4-hydroxypyrrolidine-2-carboxylic Acid]",2010 to 10000
